Columns and labels:
[1] = system: β-Glucosidase derived from A. niger; assay: Reactivity toward various isoflavone glycosides (HPLC); type: biochemical, Aspergillus niger; set-up: glucoside / aglycon: unit not given here; settings: 55 °C, pH 4.0
Method: (§1) Diglycosidase was diluted with an acetate buffer of pH 4.0 to prepare a 0.75 AU/mL enzyme solution. As references, a similar operation was conducted using β-glucosidase (manufactured by Fluka) derived from Aspergillus niger, β-glucosidase (manufactured by Sigma) derived from almond, β-xylosidase derived from pectinase G (manufactured by Amano Enzyme Inc.). Each of purified products of isoflavone glycosides (glycitin, acetylglycitin, malonylglycitin, daidzin, acetyldaidzin, malonyldaidzin, genistin, acetylgenistin, malonylgenistin, all manufactured by Nacalai Tesque, Inc.) was dissolved in methanol to prepare each 2 mM substrate solution. The reaction was carried out by mixing 10 μL of a substrate solution, 200 μL of 20 mM acetate buffer (pH 4.0), and 40 μL of each purified enzyme solution at a total liquid volume of 250 μL. The reaction was carried out at 55° C. and isolation of an aglycon isoflavone from an isoflavone glycoside in the reaction mixture was detected by HLPC at 0, 1, 3, and 6 hours of the reaction.
(§2) To the reaction mixture was added 700 μL of ethanol, followed by stirring and ultrasonication. After centrifugation at 15,000 rpm and 4° C. for 10 minutes, the supernatant was filtered through a filter and then the filtrate was applied to HPLC.
(§3) The isoflavone glycoside and aglycon isoflavone contained in the filtrate was separated and detected by a high performance liquid chromatography (HPLC, Shimadzu CLASS LC-10 system) using TOSOH TSK gel ODS-80TM column (manufactured by Tosoh Corporation). […] The absorbance at 260 nm was detected by a UV detector (Shimadzu, SPD-10AV). Using purified products (manufactured by Nacalai Tesque, Inc.) of the above isoflavone glycosides and aglycon isoflavones, the isoflavone glycoside and aglycon isoflavone were quantitatively determined according to a calibration curve method. By the way, unless otherwise stated, the measuring conditions of HPLC herein mean those described in the example.

[2] = system: Diglycosidase derived from P. multicolor; assay: as above; type: biochemical, Penicillium multicolor; set-up: glucoside / aglycon: unit not given here; settings: for aglycon / glucoside: 55 °C, pH 4.0
Method: as §1, §2, §3

[3] = system: Purified diglycosidase; assay: Influence of free glucose on diglycosidase activity; type: biochemical, Penicillium multicolor IAM7153; settings: isolated aglycon amount at glucose 0% and 0.5 hour = 100%
Method: Purified diglycosidase was diluted with 20 mM acetate buffer of pH 4.0 to prepare a 0.75 AU/mL enzyme solution.
With a glucose solution was mixed 10 μL of each 2 mM substrate solution described in Example 2, and 20 mM acetate buffer of pH 4.0 was added thereto to be a liquid volume of 210 μL. Further, 40 μL of the enzyme solution was added and reaction was carried out at a final liquid volume of 250 μL. Adjustment of the glucose solution to be added allows glucose to exist in the reaction mixture in the range of 0 to 20%. The reaction was carried out at 55° C. and the existence of isoflavone glycosides and aglycon isoflavones was detected by HLPC at 0, 0.5, 1, and 3 hours of the reaction.

[4] = system: Diglycosidase derived from A. fumigatus; assay: Reactivity toward various isoflavone glycosides (HPLC); type: biochemical, Aspergillus fumigatus; set-up: unit not given here; settings: 55 °C, pH 4.0
Method: as §1, §2, §3

| Compound | aglycon ([1]; Reaction time 0 h) | glucoside ([1]; Reaction time 0 h) | aglycon ([1]; Reaction time 1 h) | glucoside ([1]; Reaction time 1 h) | aglycon ([1]; Reaction time 3 h) | glucoside ([1]; Reaction time 3 h) | aglycon ([1]; Reaction time 6 h) | glucoside ([1]; Reaction time 6 h) | aglycon ([2]; Reaction time 0 h) | glucoside ([2]; Reaction time 0 h) | aglycon ([2]; Reaction time 1 h) | glucoside ([2]; Reaction time 1 h) | aglycon ([2]; Reaction time 3 h) | glucoside ([2]; Reaction time 3 h) | aglycon ([2]; Reaction time 6 h) | glucoside ([2]; Reaction time 6 h) | aglycon ([4]; Reaction time 0 h) | glucoside ([4]; Reaction time 0 h) | aglycon ([4]; Reaction time 1 h) | glucoside ([4]; Reaction time 1 h) | other results |
| --- | --- | --- | --- | --- | --- | --- | --- | --- | --- | --- | --- | --- | --- | --- | --- | --- | --- | --- | --- | --- | --- |
| CC(=O)OC[C@H]1O[C@@H](Oc2ccc3c(=O)c(-c4ccc(O)cc4)coc3c2)[C@H](O)[C@@H](O)[C@@H]1O [acetyldaidzin, 6″-O-acetyldaidzin] | 0 | 100 | 4.4 | 95.6 | 6.4 | 93.6 | 9 | 91 | 0 | 100 | 89.6 | 10.4 | 96.2 | 3.8 | 96.2 | 3.8 | 0 | 100 | 26.1 | 73.9 | Isolation of isoflavone aglycons by diglycosidase in presence of glucose ([3]; Glucose concentration 0 %): 100%; Isolation of isoflavone aglycons by diglycosidase in presence of glucose ([3]; Glucose concentration 2 %): 108.1%; Isolation of isoflavone aglycons by diglycosidase in presence of glucose ([3]; Glucose concentration 4 %): 112.2%; Isolation of isoflavone aglycons by diglycosidase in presence of glucose ([3]; Glucose concentration 8 %): 115.8%; Isolation of isoflavone aglycons by diglycosidase in presence of glucose ([3]; Glucose concentration 20 %): 114.5%; aglycon ([4]; Reaction time 3 h): 47.2; glucoside ([4]; Reaction time 3 h): 52.8; aglycon ([4]; Reaction time 6 h): 66.5; glucoside ([4]; Reaction time 6 h): 33.5 |
| CC(=O)OC[C@H]1O[C@@H](Oc2cc(O)c3c(=O)c(-c4ccc(O)cc4)coc3c2)[C@H](O)[C@@H](O)[C@@H]1O [acetylgenistin, 6″-O-acetylgenistin] | 0 | 100 | 1.4 | 98.6 | 3.3 | 96.7 | 6.2 | 93.8 | 0 | 100 | 99.8 | 0.2 | 99.9 | 0.1 | 99.8 | 0.2 | 0 | 100 | 12.6 | 87.4 | Isolation of isoflavone aglycons by diglycosidase in presence of glucose ([3]; Glucose concentration 0 %): 100%; Isolation of isoflavone aglycons by diglycosidase in presence of glucose ([3]; Glucose concentration 2 %): 104.1%; Isolation of isoflavone aglycons by diglycosidase in presence of glucose ([3]; Glucose concentration 4 %): 104.1%; Isolation of isoflavone aglycons by diglycosidase in presence of glucose ([3]; Glucose concentration 8 %): 104.1%; Isolation of isoflavone aglycons by diglycosidase in presence of glucose ([3]; Glucose concentration 20 %): 104.1%; aglycon ([4]; Reaction time 3 h): 22.9; glucoside ([4]; Reaction time 3 h): 77.1; aglycon ([4]; Reaction time 6 h): 35.2; glucoside ([4]; Reaction time 6 h): 64.8 |
| COc1cc2c(=O)c(-c3ccc(O)cc3)coc2cc1O[C@@H]1O[C@H](COC(C)=O)[C@@H](O)[C@H](O)[C@H]1O [acetylglycitin, 6″-O-acetylglycitin] | 0 | 100 | 0 | 100 | 1 | 99 | 1.9 | 98.1 | 0 | 100 | 98 | 2 | 97.9 | 2.1 | 97.5 | 2.5 | 0 | 100 | 6 | 94 | Isolation of isoflavone aglycons by diglycosidase in presence of glucose ([3]; Glucose concentration 0 %): 100%; Isolation of isoflavone aglycons by diglycosidase in presence of glucose ([3]; Glucose concentration 2 %): 100.9%; Isolation of isoflavone aglycons by diglycosidase in presence of glucose ([3]; Glucose concentration 4 %): 100.9%; Isolation of isoflavone aglycons by diglycosidase in presence of glucose ([3]; Glucose concentration 8 %): 100.9%; Isolation of isoflavone aglycons by diglycosidase in presence of glucose ([3]; Glucose concentration 20 %): 100.9%; aglycon ([4]; Reaction time 3 h): 13.5; glucoside ([4]; Reaction time 3 h): 86.5; aglycon ([4]; Reaction time 6 h): 22.7; glucoside ([4]; Reaction time 6 h): 77.3 |
| O=c1c(-c2ccc(O)cc2)coc2cc(O[C@@H]3O[C@H](CO)[C@@H](O)[C@H](O)[C@H]3O)ccc12 [daidzin] | 0 | 100 | 100 | 0 | 100 | 0 | 100 | 0 | 0.9 | 99.1 | 70.1 | 29.9 | 81.8 | 18.2 | 88.5 | 11.5 | 0.9 | 99.1 | 7.1 | 92.9 | reactivity of β-glucosidase derived from Aspergillus niger (in words) [1]: act well; Isolation of isoflavone aglycons by diglycosidase in presence of glucose ([3]; Glucose concentration 0 %): 100%; Isolation of isoflavone aglycons by diglycosidase in presence of glucose ([3]; Glucose concentration 2 %): 128.1%; Isolation of isoflavone aglycons by diglycosidase in presence of glucose ([3]; Glucose concentration 4 %): 126%; Isolation of isoflavone aglycons by diglycosidase in presence of glucose ([3]; Glucose concentration 8 %): 129.1%; Isolation of isoflavone aglycons by diglycosidase in presence of glucose ([3]; Glucose concentration 20 %): 111.9%; aglycon ([4]; Reaction time 3 h): 14.7; glucoside ([4]; Reaction time 3 h): 85.3; aglycon ([4]; Reaction time 6 h): 24.8; glucoside ([4]; Reaction time 6 h): 75.2 |
| O=c1c(-c2ccc(O)cc2)coc2cc(O[C@@H]3O[C@H](CO)[C@@H](O)[C@H](O)[C@H]3O)cc(O)c12 [genistin] | 0 | 100 | 100 | 0 | 100 | 0 | 100 | 0 | 0 | 100 | 0 | 100 | 0 | 100 | 0 | 100 | 0 | 100 | 0 | 100 | reactivity of β-glucosidase derived from Aspergillus niger (in words) [1]: act well; efficiency of decomposing by diglycosidase with combined use of β-glucosidase ([2]; combined use of β-glucosidase in addition to the enzyme): further enhanced; aglycon ([4]; Reaction time 3 h): 0; glucoside ([4]; Reaction time 3 h): 100; aglycon ([4]; Reaction time 6 h): 0; glucoside ([4]; Reaction time 6 h): 100 |
| COc1cc2c(=O)c(-c3ccc(O)cc3)coc2cc1O[C@@H]1O[C@H](CO)[C@@H](O)[C@H](O)[C@H]1O [glycitin] | 0 | 100 | 49.5 | 50.5 | 88.3 | 11.7 | 95.5 | 4.5 | 0 | 100 | 97.9 | 2.1 | 99.8 | 0.2 | 99.7 | 0.3 | 0 | 100 | 0.5 | 99.5 | reactivity of β-glucosidase derived from Aspergillus niger (in words) [1]: act well; Isolation of isoflavone aglycons by diglycosidase in presence of glucose ([3]; Glucose concentration 0 %): 100%; Isolation of isoflavone aglycons by diglycosidase in presence of glucose ([3]; Glucose concentration 2 %): 96%; Isolation of isoflavone aglycons by diglycosidase in presence of glucose ([3]; Glucose concentration 4 %): 99.7%; Isolation of isoflavone aglycons by diglycosidase in presence of glucose ([3]; Glucose concentration 8 %): 100.1%; Isolation of isoflavone aglycons by diglycosidase in presence of glucose ([3]; Glucose concentration 20 %): 92.8%; aglycon ([4]; Reaction time 3 h): 0; glucoside ([4]; Reaction time 3 h): 100; aglycon ([4]; Reaction time 6 h): 0; glucoside ([4]; Reaction time 6 h): 100 |

From patent US7118895B2, “Process for producing aglycon by using diglycosidase and flavor-improved food containing the aglycon and converting agent to be used in the process” (Amano Enzyme Inc., priority 2000, dated 2006)
